Results from US6911432B2, “Drugs, foods or drinks with the use of algae-derived physiologically active substances” (priority 1997, dated 2005).
pIC50: −log10 of the molar value.

Experiments:
A549 = experiment: antiproliferation assay, MTT method; format: cell-based, human
Experimental: (§1) Each fraction was sterilized by filtration and its 10 μl portion was placed in a well of a 96 well microtiter plate. […] The cell morphology was observed under an optical microscope. […] The absorbance at 590 nm was measured to determine a cell proliferation rate. (2) A 50 mM solution of agarobiose, agarotetraose or agarohexaose obtained in Example 3-(1) was sterilized by filtration and diluted 2-, 4-, 8-, 16-, 32-, 64- and 128-folds with sterilized water. […] [table] The number in Table 3 represents the dilution rate of the dilution added to the group whose absorbance at 590 nm was less than one-half of that of the control group to which water was added. […] Then, for agarobiose, agarotetraose and agarohexaose, the concentrations required for 50% proliferation inhibitory rate (IC50) are calculated based on the change in the absorbance at 590 nm, and are shown in Table 4.

HeLa S3 = experiment: antiproliferation assay, MTT method; format: cell-based, human
Experimental: as §1

T-47D = experiment: antiproliferation assay, MTT method; format: cell-based, human
Experimental: as §1

RPMI1788 = experiment: antiproliferation assay, MTT method; format: cell-based, human
Experimental: as §1

MCF7 = experiment: antiproliferation assay, MTT method; format: cell-based, human
Experimental: as §1

MKN45 = experiment: antiproliferation assay, MTT method; format: cell-based, human
Experimental: as §1

HCT116 = experiment: antiproliferation assay, MTT method; format: cell-based, human
Experimental: as §1

WiDr = experiment: antiproliferation assay, MTT method; format: cell-based, human
Experimental: as §1

HepG2 = experiment: antiproliferation assay, MTT method; format: cell-based, human
Experimental: as §1

HT-29 = experiment: antiproliferation assay, MTT method; format: cell-based, human
Experimental: as §1

T24 = experiment: antiproliferation assay, MTT method; format: cell-based, human
Experimental: as §1

HT-1080 = experiment: antiproliferation assay, MTT method; format: cell-based
Experimental: as §1

A-172 = experiment: antiproliferation assay, MTT method; format: cell-based
Experimental: as §1

HL-60 cells [1] = experiment: antiproliferation assay, MTT method, absorbance at 590 nm; format: cell-based, human; details: HL-60
HL-60 cells [2] = experiment: viable cell count with Trypan Blue under a microscope; format: cell-based, human; details: final concentration 250 μM or 125 μM
Experimental: Agarobiose, agarotetraose, agarohexaose and agarooctaose (hereinafter, sometimes, these oligosuccharaides are referred to as agarooligosaccharides) obtained in Example 5 were dissolved in water at a concentration of 2.5 mM or 1.25 mM separately, and were sterilized by filtration. HL-60 cells were suspended in RPMI 1640 medium containing 10% fetal bovine serum at a concentration of 2.5×10^5 cells/4.5 ml and to this suspension was added 0.5 ml of each of the oligosaccharide solutions. The resultant mixture were incubated with 5% CO2 at 37° C. for 24 hours or 48 hours. A part of the cell culture was taken up, followed by addition of Trypan Blue thereto and observing under a microscope to count the number of viable cells.
That is, FIG. 14 illustrates the relation between the incubation time and the number of viable cells when HL-60 cells were cultured with addition of one of the oligosaccharides at the final concentration of 250 μM. FIG. 15 illustrates the relation between the incubation time and the number of viable cells when HL-60 cells were cultured with addition of one of the oligosaccharides at the final concentration of 125 μM. In FIGS. 14 and 15, the horizontal axes represent the incubation time (hrs.) and the vertical axes represent the number of viable cells (× 10^5/5 ml). The closed circle (●) represents the addition of water (control), the open diamond (⋄) represents the addition of agarobiose, the open circle (◯) represents the addition of agarotetraose, the open triangle (Δ) represents the addition of agarohexaose and the open square (□) represents the addition of agarooctaose.

RAW264.7 = experiment: antiproliferation assay, MTT method; format: cell-based, mouse
Experimental: as §1

iNOS = iNOS expression by western blotting and RT-PCR; format: cell-based; details: protein level by western blotting, messenger RNA level by RT-PCR
Experimental: The confirmation was carried out at protein level by western blotting and at messenger RNA level by RT-PCR. That is, the compounds used in the present invention are useful for treating and preventing diseases that require inhibition of NO production by inhibiting expression of iNOS which is overexpressed by various factors to produce excess NO.

[3] = dilution rate 1 corresponds to 5 mM in medium
[4] = read-out: IC50 (concentration required for 50% proliferation inhibitory rate)

- pIC50 (A549; [4]): 3.55
- pIC50 (HeLa S3; [4]): 3.48
- pIC50 (T-47D; [4]): 3.80
- pIC50 (MCF7; [4]): 3.62
- pIC50 (MKN45; [4]): 3.78
- pIC50 (HCT116; [4]): 3.87
- pIC50 (HepG2; [4]): 3.37
- pIC50 (HT-29; [4]): 3.84
- pIC50 (T24; [4]): 3.44
- pIC50 (HT-1080; [4]): 3.73
- pIC50 (HL-60 cells [1]; [4]): 4.11
SMILES: OC[C@H]1O[C@@H](O[C@H]2[C@H]3OC[C@@H]2O[C@@H](O[C@H]2[C@@H](O)[C@@H](CO)O[C@@H](O[C@H]4[C@H]5OC[C@@H]4O[C@@H](O[C@H]4[C@@H](O)[C@@H](CO)O[C@@H](O[C@H]6[C@H]7OC[C@@H]6OC(O)[C@H]7O)[C@@H]4O)[C@H]5O)[C@@H]2O)[C@H]3O)[C@H](O)[C@@H](O)[C@H]1O (mixture of isomers) [Agarohexaose, agarohexaose]
- dilution rate of the dilution added to the group whose absorbance at 590 nm was less than one-half of that of the control group (A549; [3]): 16
- dilution rate of the dilution added to the group whose absorbance at 590 nm was less than one-half of that of the control group (HeLa S3; [3]): 16
- dilution rate of the dilution added to the group whose absorbance at 590 nm was less than one-half of that of the control group (T-47D; [3]): 16
- dilution rate of the dilution added to the group whose absorbance at 590 nm was less than one-half of that of the control group (RPMI1788; [3]): 128
- pIC50 (RPMI1788; [4]): 4.66
- dilution rate of the dilution added to the group whose absorbance at 590 nm was less than one-half of that of the control group (MCF7; [3]): 16
- dilution rate of the dilution added to the group whose absorbance at 590 nm was less than one-half of that of the control group (MKN45; [3]): 16
- dilution rate of the dilution added to the group whose absorbance at 590 nm was less than one-half of that of the control group (HCT116; [3]): 32
- dilution rate of the dilution added to the group whose absorbance at 590 nm was less than one-half of that of the control group (WiDr; [3]): 16
- pIC50 (WiDr; [4]): 3.48
- dilution rate of the dilution added to the group whose absorbance at 590 nm was less than one-half of that of the control group (HepG2; [3]): 16
- dilution rate of the dilution added to the group whose absorbance at 590 nm was less than one-half of that of the control group (HT-29; [3]): 32
- dilution rate of the dilution added to the group whose absorbance at 590 nm was less than one-half of that of the control group (T24; [3]): 8
- dilution rate of the dilution added to the group whose absorbance at 590 nm was less than one-half of that of the control group (HT-1080; [3]): 16
- dilution rate of the dilution added to the group whose absorbance at 590 nm was less than one-half of that of the control group (A-172; [3]): 16
- pIC50 (A-172; [4]): 3.82
- dilution rate of the dilution added to the group whose absorbance at 590 nm was less than one-half of that of the control group (HL-60 cells [1]; 50 mM solution diluted 2- to 128-fold, dilution rate 1 corresponds to 5 mM in the cell culture medium): 64
- apoptosis corpuscles (HL-60 cells [2]): apoptosis corpuscles were observed
- number of viable cells as compared with the group to which water was added (HL-60 cells [2]; 24 hours or 48 hours): decreased
- dilution rate of the dilution added to the group whose absorbance at 590 nm was less than one-half of that of the control group (RAW264.7; [3]): 32
- pIC50 (RAW264.7; [4]): 3.96
- inhibition of iNOS expression (iNOS): inhibit this iNOS expression
